Source: PubChem BioAssay (NCI)
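Test compounds were applied to cells in 96-well plates for 48 hours at 5 doses. Abbreviation: GI50, concentration required for 50% inhibition of growth. The concentration for full growth arrest is given as TGI.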

Experiments:
Assay in all cases: inhibition of tumour cell growth, NCI panel, 48 h
786-0 renal = test system: 786-0 renal
A498 renal = test system: A498 renal
A549 NSCLC = test system: A549 NSCLC
ACHN renal = test system: ACHN renal
BT-549 breast = test system: BT-549 breast
CAKI-1 renal = test system: CAKI-1 renal
CCRF-CEM leukemia = test system: CCRF-CEM leukemia
COLO 205 colon = test system: COLO 205 colon
DU-145 prostate = test system: DU-145 prostate
HCC-2998 colon = test system: HCC-2998 colon
HCT-116 colon = test system: HCT-116 colon
HCT-15 colon = test system: HCT-15 colon
HL-60(TB) leukemia = test system: HL-60(TB) leukemia
HOP-62 NSCLC = test system: HOP-62 NSCLC
HOP-92 NSCLC = test system: HOP-92 NSCLC
HS 578T breast = test system: HS 578T breast
HT29 colon = test system: HT29 colon
IGROV1 ovarian = test system: IGROV1 ovarian
K-562 leukemia = test system: K-562 leukemia
KM12 colon = test system: KM12 colon
LOX IMVI melanoma = test system: LOX IMVI melanoma
M14 melanoma = test system: M14 melanoma
MALME-3M melanoma = test system: MALME-3M melanoma
MCF7 breast = test system: MCF7 breast
MDA-MB-231 breast = test system: MDA-MB-231 breast
MDA-MB-435 = test system: MDA-MB-435
MOLT-4 leukemia = test system: MOLT-4 leukemia
NCI-H226 lung = test system: NCI-H226 lung
NCI-H23 lung = test system: NCI-H23 lung
NCI-H460 lung = test system: NCI-H460 lung
NCI-H522 lung = test system: NCI-H522 lung
NCI/ADR-RES ovarian = test system: NCI/ADR-RES ovarian
OVCAR-3 ovarian = test system: OVCAR-3 ovarian
OVCAR-4 ovarian = test system: OVCAR-4 ovarian
OVCAR-5 ovarian = test system: OVCAR-5 ovarian
OVCAR-8 ovarian = test system: OVCAR-8 ovarian
PC-3 prostate = test system: PC-3 prostate
RPMI-8226 leukemia = test system: RPMI-8226 leukemia
RXF 393 renal = test system: RXF 393 renal
SF-268 CNS = test system: SF-268 CNS
SF-295 CNS = test system: SF-295 CNS
SF-539 CNS = test system: SF-539 CNS
SK-MEL-2 melanoma = test system: SK-MEL-2 melanoma
SK-MEL-28 melanoma = test system: SK-MEL-28 melanoma
SK-MEL-5 melanoma = test system: SK-MEL-5 melanoma
SK-OV-3 ovarian = test system: SK-OV-3 ovarian
SN12C renal = test system: SN12C renal
SNB-19 CNS = test system: SNB-19 CNS
SNB-75 CNS = test system: SNB-75 CNS
SR leukemia = test system: SR leukemia
SW-620 colon = test system: SW-620 colon
T-47D breast = test system: T-47D breast
TK-10 renal = test system: TK-10 renal
U251 CNS = test system: U251 CNS
UACC-257 melanoma = test system: UACC-257 melanoma
UACC-62 melanoma = test system: UACC-62 melanoma
UO-31 renal = test system: UO-31 renal

Cn1cc(C2=C(c3c4n(c5ccccc35)CCN(C(N)=S)C4)C(=O)NC2=O)c2ccccc21
GI50 (786-0 renal): 5.23 µM
TGI (786-0 renal): > 25 µM
GI50 (A498 renal): 1.59 µM
TGI (A498 renal): 9.64 µM
GI50 (A549 NSCLC): 5.55 µM
TGI (A549 NSCLC): > 25 µM
GI50 (ACHN renal): 5.95 µM
TGI (ACHN renal): > 25 µM
GI50 (BT-549 breast): 6.83 µM
TGI (BT-549 breast): > 25 µM
GI50 (CAKI-1 renal): 4.85 µM
TGI (CAKI-1 renal): > 20.8 µM
GI50 (CCRF-CEM leukemia): 4.61 µM
TGI (CCRF-CEM leukemia): > 25 µM
GI50 (COLO 205 colon): 5.97 µM
TGI (COLO 205 colon): > 21.6 µM
GI50 (DU-145 prostate): 8.04 µM
TGI (DU-145 prostate): > 23.1 µM
GI50 (HCC-2998 colon): 6.13 µM
TGI (HCC-2998 colon): 20.8 µM
GI50 (HCT-116 colon): 4.11 µM
TGI (HCT-116 colon): > 16.8 µM
GI50 (HCT-15 colon): 6.31 µM
TGI (HCT-15 colon): > 25 µM
GI50 (HL-60(TB) leukemia): 2.33 µM
TGI (HL-60(TB) leukemia): 8.05 µM
GI50 (HOP-62 NSCLC): 6.81 µM
TGI (HOP-62 NSCLC): > 25 µM
GI50 (HOP-92 NSCLC): 8.82 µM
TGI (HOP-92 NSCLC): > 25 µM
GI50 (HS 578T breast): 0.88 µM
TGI (HS 578T breast): 11.1 µM
GI50 (HT29 colon): 2.28 µM
TGI (HT29 colon): > 25 µM
GI50 (IGROV1 ovarian): 7.82 µM
TGI (IGROV1 ovarian): > 19.1 µM
GI50 (K-562 leukemia): 1.59 µM
TGI (K-562 leukemia): > 17 µM
GI50 (KM12 colon): 3.05 µM
TGI (KM12 colon): 9.69 µM
GI50 (LOX IMVI melanoma): 2.5 µM
TGI (LOX IMVI melanoma): > 25 µM
GI50 (M14 melanoma): 4.71 µM
TGI (M14 melanoma): > 25 µM
GI50 (MALME-3M melanoma): > 11 µM
TGI (MALME-3M melanoma): > 25 µM
GI50 (MCF7 breast): 1.24 µM
TGI (MCF7 breast): > 17.2 µM
GI50 (MDA-MB-231 breast): 6.95 µM
TGI (MDA-MB-231 breast): > 23.2 µM
GI50 (MDA-MB-435): 0.883 µM
TGI (MDA-MB-435): 5.98 µM
GI50 (MOLT-4 leukemia): 5.12 µM
TGI (MOLT-4 leukemia): > 20.9 µM
GI50 (NCI-H226 lung): 5.84 µM
TGI (NCI-H226 lung): > 19 µM
GI50 (NCI-H23 lung): 7.34 µM
TGI (NCI-H23 lung): > 25 µM
GI50 (NCI-H460 lung): 6.91 µM
TGI (NCI-H460 lung): > 22.8 µM
GI50 (NCI-H522 lung): 1.95 µM
TGI (NCI-H522 lung): > 15 µM
GI50 (NCI/ADR-RES ovarian): 9.48 µM
TGI (NCI/ADR-RES ovarian): > 25 µM
GI50 (OVCAR-3 ovarian): 1.75 µM
TGI (OVCAR-3 ovarian): 7.36 µM
GI50 (OVCAR-4 ovarian): 6.87 µM
TGI (OVCAR-4 ovarian): > 25 µM
GI50 (OVCAR-5 ovarian): 16 µM
TGI (OVCAR-5 ovarian): > 25 µM
GI50 (OVCAR-8 ovarian): 7.13 µM
TGI (OVCAR-8 ovarian): > 25 µM
GI50 (PC-3 prostate): 4.92 µM
TGI (PC-3 prostate): > 25 µM
GI50 (RPMI-8226 leukemia): 12.9 µM
TGI (RPMI-8226 leukemia): > 25 µM
GI50 (RXF 393 renal): 2.34 µM
TGI (RXF 393 renal): 10.6 µM
GI50 (SF-268 CNS): 5.58 µM
TGI (SF-268 CNS): > 25 µM
GI50 (SF-295 CNS): 2.64 µM
TGI (SF-295 CNS): 10.8 µM
GI50 (SF-539 CNS): 1.48 µM
TGI (SF-539 CNS): 7.86 µM
GI50 (SK-MEL-2 melanoma): 4.32 µM
TGI (SK-MEL-2 melanoma): 13 µM
GI50 (SK-MEL-28 melanoma): 5.34 µM
TGI (SK-MEL-28 melanoma): > 25 µM
GI50 (SK-MEL-5 melanoma): 2.67 µM
TGI (SK-MEL-5 melanoma): > 16.7 µM
GI50 (SK-OV-3 ovarian): 4.51 µM
TGI (SK-OV-3 ovarian): > 25 µM
GI50 (SN12C renal): 6.99 µM
TGI (SN12C renal): > 25 µM
GI50 (SNB-19 CNS): 12.8 µM
TGI (SNB-19 CNS): > 25 µM
GI50 (SNB-75 CNS): 0.36 µM
TGI (SNB-75 CNS): 10.6 µM
GI50 (SR leukemia): 1.35 µM
TGI (SR leukemia): > 15.1 µM
GI50 (SW-620 colon): 3.45 µM
TGI (SW-620 colon): > 25 µM
GI50 (T-47D breast): 10.4 µM
TGI (T-47D breast): > 25 µM
GI50 (TK-10 renal): 8.64 µM
TGI (TK-10 renal): > 23.7 µM
GI50 (U251 CNS): 4.49 µM
TGI (U251 CNS): 11.2 µM
GI50 (UACC-257 melanoma): 7.11 µM
TGI (UACC-257 melanoma): > 25 µM
GI50 (UACC-62 melanoma): 4.27 µM
TGI (UACC-62 melanoma): > 25 µM
GI50 (UO-31 renal): 4.37 µM
TGI (UO-31 renal): > 21.7 µM
